# Source: ChEMBL document CHEMBL4651402, “Screening of ~5500 FDA-approved drugs and clinical candidates for anti-SARS-CoV-2 activity” (2021)
# “And” between values parts separate entries of the source, which are not always exact repeats. Equal entries are not always repeated.
# How the values were obtained:
# SARS-CoV-2 [1] = experiment: microbe, parasite or virus in culture; format: functional, organism-based, Chlorocebus sabaeus, Vero C1008; details: Severe acute respiratory syndrome coronavirus 2, Vero C1008, 48 h
# SARS-CoV-2 [2] = details: vero c1008
# in vitro = details: chlorocebus sabaeus, Vero E6 (Vero C1008) cells
# SARS-CoV-2 [3] = experiment: microbe, parasite or virus in culture; details: Severe acute respiratory syndrome coronavirus 2, Vero C1008, 48 h
Compound,IC50 (SARS-CoV-2 [1]; read-out: IC50) [µM],IC50 (SARS-CoV-2 [1]; read-out: pIC50 (converted)) [µM],IC50 (SARS-CoV-2 [2]),pIC50 (SARS-CoV-2 [2]),CC50 at 48 h (in vitro; CC50) [µM],CC50 at 48 h (in vitro; pCC50) [µM],IC50 (SARS-CoV-2 [3]) [µM],IC50 (SARS-CoV-2 [3]; read-out: pIC50 (converted)) [µM]
COc1cccc([C@@H](C)NCCCc2ccccc2Cl)c1,> 100,> 100,> 20 µM,< 4.7,28.2,28.2,16.6,16.6
O=C(O)Cc1cn(-c2ccccc2)nc1-c1ccc(Cl)cc1.O=C(O)Cc1cn(-c2ccccc2)nc1-c1ccc(Cl)cc1.[Ca+2],–,–,–,< 4.7,–,–,–,–
RAUWOLFIA SERPENTINA,–,–,> 20 µM,< 4.7,–,–,–,–
O=C(O)c1cc(=O)c2c(OCC(O)COc3cccc4oc(C(=O)O)cc(=O)c34)cccc2o1.[NaH],–,–,–,< 4.7,–,–,–,–
CC(C)(NC(=O)O[C@@H]1CN2CCC1CC2)c1csc(-c2ccc(F)cc2)n1,–,–,> 20 µM,< 4.7,–,–,–,–
OCCN1CCN(CC/C=C2/c3ccccc3Sc3ccc(Cl)cc32)CC1 [ZUCLOPENTHIXOL],> 100,> 100,7.24 µM and > 20 µM,5.14 and < 4.7,6.68,6.61,–,–
N=C(N)c1ccc(C=C2c3ccccc3-c3ccccc32)cc1 [PARANYLINE],> 100,> 100,–,–,2.92,2.88,3.47,3.47
CNCc1ccc(C)c(NC(=O)c2ccc(Nc3nc(-c4ccccc4)c4ccccc4n3)cc2)c1 [BMS-833923],> 100,> 100,–,–,3.09,3.09,2.95,2.95
COc1cc(/C=C/C(=O)N2CCC=CC2=O)cc(OC)c1OC [PIPLARTINE],> 50.1,> 50.1,–,–,9.55,9.55,> 50.1,> 50.1
COc1cc(/C=C/C(=O)CC(=O)/C=C/c2ccc(O)c(OC)c2)ccc1O [CURCUMIN],> 100,> 100,–,–,14.8,14.8,> 100,> 100
CCN(CC)CCNC(=O)c1cc(Cl)c(NC(=O)COc2ccc(Cl)cc2)cc1OC [CLOXACEPRIDE],> 100,> 100,–,–,2.85,2.82,3.63,3.63
CN1CCC(=C2c3ccccc3Sc3ccccc32)CC1 [PIMETHIXENE],> 100,> 100,–,–,25.7,25.7,> 100,> 100
CC(=O)NC1(c2ccccc2)CCN(CCC(CN(C)C(=O)c2ccccc2)c2ccc(Cl)c(Cl)c2)CC1 (centres undefined),> 100,> 100,–,–,23.4,23.4,> 100,> 100
CCN(CC)CCOC1(c2ccccc2)CCN(CCNc2ccccc2)CC1 [DIAMOCAINE],22.4,22.4,–,–,46.8,46.8,~9.55,~9.55
COc1ccc2c(c1)N(CCCN(C)C)c1ccccc1S2 [METHOXYPROMAZINE],> 100,> 100,–,–,14.1,14.1,> 20,> 20
